According to US20100179122A1 (priority 2005, published 2010):
Read-outs that look alike come from different tables or passages of the source.

Test system: acute HIV infection of T-lymphoid cells
Assay: Assay for inhibition of HIV replication (spread assay)
Assay type: cell-based
Conditions: read-out: IC95, spread assay
Protocol: An assay for the inhibition of acute HIV infection of T-lymphoid cells (alternatively referred to herein as the “spread assay”) was conducted in accordance with Vacca, J. P. et al., Proc. Natl. Acad. Sci. USA 1994, 91: 4096. […] The compounds set forth in the other Examples were not tested in the spread assay.

[1] = Human immunodeficiency virus 1, inhibition of acute HIV infection of T-lymphoid cells

Compound | IC95 [1] | IC95 (Human immunodeficiency virus 1, T-lymphoid)
O=C(COCc1ccccc1)Nc1[nH]c2ccc(Cl)cc2c1S(=O)(=O)c1ccccc1 [Example 6, 2-(benzyloxy)-N-[5-chloro-3-(phenylsulfonyl)-1H-indol-2-yl]acetamide] | < 1000 nM | 
CCC(=O)Nc1[nH]c2ccc(Cl)cc2c1S(=O)(=O)c1ccccc1 [Example 7, N-[5-chloro-3-(phenylsulfonyl)-1H-indol-2-yl]propanamide] | < 1000 nM | 
O=C(Nc1[nH]c2ccc(Cl)cc2c1S(=O)(=O)c1ccccc1)C1CCC1 [Example 9, N-[5-chloro-3-(phenylsulfonyl)-1H-indol-2-yl]cyclobutanecarboxamide] | < 1000 nM | 
O=C(CNC1CC1)Nc1[nH]c2ccc(Cl)cc2c1S(=O)(=O)c1ccccc1 [Example 12, N^1-[5-chloro-3-(phenylsulfonyl)-1H-indol-2-yl]-N^2-cyclopropylglycinamide] | < 1000 nM | 
O=C(Cc1ccc(F)cc1)Nc1[nH]c2ccc(Cl)cc2c1S(=O)(=O)c1ccccc1 [Example 16, N-[5-chloro-3-(phenylsulfonyl)-1H-indol-2-yl]-2-(4-fluorophenyl)acetamide] | < 1000 nM | 
O=C(CN1CCCC(F)(F)C1)Nc1[nH]c2ccc(Cl)cc2c1S(=O)(=O)c1ccccc1 [Example 17, N-[5-chloro-3-(phenylsulfonyl)-1H-indol-2-yl]-2-(3,3-difluoropiperidin-1-yl)acetamide] | < 1000 nM | 
O=C(Nc1[nH]c2ccc(Cl)cc2c1S(=O)(=O)c1ccccc1)c1ccc(F)cc1F [Example 18, N-[5-chloro-3-(phenylsulfonyl)-1H-indol-2-yl]-2,4-difluorobenzamide] | < 1000 nM | 
O=C(Nc1[nH]c2ccc(Cl)cc2c1S(=O)(=O)c1ccccc1)c1ccccc1F [Example 19, N-[5-chloro-3-(phenylsulfonyl)-1H-indol-2-yl]-2-fluorobenzamide] | < 1000 nM | 
O=C(Nc1[nH]c2ccc(Cl)cc2c1S(=O)(=O)c1ccccc1)c1ccncc1 [Example 20, N-[5-chloro-3-(phenylsulfonyl)-1H-indol-2-yl]isonicotinamide] | < 1000 nM | 
Cc1ccoc1C(=O)Nc1[nH]c2ccc(Cl)cc2c1S(=O)(=O)c1ccccc1 [Example 24, N-[5-chloro-3-(phenylsulfonyl)-1H-indol-2-yl]-3-methyl-2-furamide] | < 1000 nM | 
O=C(Nc1[nH]c2ccc(Cl)cc2c1S(=O)(=O)c1ccccc1)c1cccc(F)c1 [Example 25, N-[5-chloro-3-(phenylsulfonyl)-1H-indol-2-yl]-3-fluorobenzamide] | < 1000 nM | 
CCOC(=O)CNC(=O)Nc1[nH]c2ccc(Cl)cc2c1S(=O)(=O)c1ccccc1 [Example 27, ethyl N-({[5-chloro-3-(phenylsulfonyl)-1H-indol-2-yl]amino}carbonyl)glycinate] | < 1000 nM | 
O=C(Nc1[nH]c2ccc(Cl)cc2c1S(=O)(=O)c1ccccc1)c1ccccc1 [Example 28, N-[5-chloro-3-(phenylsulfonyl)-1H-indol-2-yl]benzamide] | < 1000 nM | 
O=C(Nc1cccc(F)c1)Nc1[nH]c2ccc(Cl)cc2c1S(=O)(=O)c1ccccc1 [Example 29, N-[5-chloro-3-(phenylsulfonyl)-1H-indol-2-yl]-N′-(3-fluorophenyl)urea] | < 1000 nM | 
COCC(=O)Nc1[nH]c2ccc(Cl)cc2c1S(=O)(=O)c1ccccc1 [Example 34, N-[5-chloro-3-(phenylsulfonyl)-1H-indol-2-yl]-2-methoxyacetamide] | < 1000 nM | 
O=C(Nc1ccccc1)Nc1[nH]c2ccc(Cl)cc2c1S(=O)(=O)c1ccccc1 [Example 35, N-[5-chloro-3-(phenylsulfonyl)-1H-indol-2-yl]-N′-phenylurea] | < 1000 nM | 
O=C(Nc1ccccc1C(F)(F)F)Nc1[nH]c2ccc(Cl)cc2c1S(=O)(=O)c1ccccc1 [Example 41, N-[5-chloro-3-(phenylsulfonyl)-1H-indol-2-yl]-N′-[2-(trifluoromethyl)phenyl]urea] | < 1000 nM | 
Cn1ccnc1CNCC(=O)Nc1[nH]c2ccc(Cl)cc2c1S(=O)(=O)c1ccccc1 [Example 42, N^1-[5-chloro-3-(phenylsulfonyl)-1H-indol-2-yl]-N^2-[(1-methyl-1H-imidazol-2-yl)methyl]glycinamide] | < 1000 nM | 
Cc1cccc(CNC(=O)Nc2[nH]c3ccc(Cl)cc3c2S(=O)(=O)c2ccccc2)c1 [Example 43, N-[5-chloro-3-(phenylsulfonyl)-1H-indol-2-yl]-N′-(3-methylbenzyl)urea] | < 1000 nM | 
O=C(Nc1[nH]c2ccc(Cl)cc2c1S(=O)(=O)c1ccccc1)NC1CCCC1 [Example 44, N-[5-chloro-3-(phenylsulfonyl)-1H-indol-2-yl]-N′-cyclopentylurea] | < 1000 nM | 
CC1(CNCC(=O)Nc2[nH]c3ccc(Cl)cc3c2S(=O)(=O)c2ccccc2)COC1 [Example 45, N^1-[5-chloro-3-(phenylsulfonyl)-1H-indol-2-yl]-N^2-[(3-methyloxetan-3-yl)methyl]glycinamide] | < 1000 nM | 

Compound | IC95 [1] | IC95 (Human immunodeficiency virus 1, T-lymphoid)
CCC(C)NC(=O)Nc1[nH]c2ccc(Cl)cc2c1S(=O)(=O)c1ccccc1 (centres unmarked) [Example 46, N-(sec-butyl)-N′-[5-chloro-3-(phenylsulfonyl)-1H-indol-2-yl]urea] | < 1000 nM | 
O=C(Nc1[nH]c2ccc(Cl)cc2c1S(=O)(=O)c1ccccc1)C1CCCC1 [Example 47, N-[5-chloro-3-(phenylsulfonyl)-1H-indol-2-yl]cyclopentanecarboxamide] | < 1000 nM | 
CCCCNC(=O)Nc1[nH]c2ccc(Cl)cc2c1S(=O)(=O)c1ccccc1 [Example 48, N-butyl-N′-[5-chloro-3-(phenylsulfonyl)-1H-indol-2-yl]urea] | < 1000 nM | 
O=C(NCCc1ccccc1)Nc1[nH]c2ccc(Cl)cc2c1S(=O)(=O)c1ccccc1 [Example 49, N-[5-chloro-3-(phenylsulfonyl)-1H-indol-2-yl]-N′-(2-phenylethyl)urea] | 1000 to 10000 nM | 
O=C(NCc1cccc(F)c1)Nc1[nH]c2ccc(Cl)cc2c1S(=O)(=O)c1ccccc1 [Example 50, N-[5-chloro-3-(phenylsulfonyl)-1H-indol-2-yl]-N′-(3-fluorobenzyl)urea] | < 1000 nM | 
COc1cccc(CNCC(=O)Nc2[nH]c3ccc(Cl)cc3c2S(=O)(=O)c2ccccc2)c1 [Example 51, N^1-[5-chloro-3-(phenylsulfonyl)-1H-indol-2-yl]-N^2-(3-methoxybenzyl)glycinamide] | < 1000 nM | 
O=C(NCc1ccc(F)cc1)Nc1[nH]c2ccc(Cl)cc2c1S(=O)(=O)c1ccccc1 [Example 52, N-[5-chloro-3-(phenylsulfonyl)-1H-indol-2-yl]-N′-(4-fluorobenzyl)urea] | < 1000 nM | 
CS(=O)(=O)N1CCN(CC(=O)Nc2[nH]c3ccc(Cl)cc3c2S(=O)(=O)c2ccccc2)CC1 [Example 53, N-[5-chloro-3-(phenylsulfonyl)-1H-indol-2-yl]-2-[4-(methylsulfonyl)piperazin-1-yl]acetamide] | < 1000 nM | 
O=C(CN1CCC(c2ccccn2)C1)Nc1[nH]c2ccc(Cl)cc2c1S(=O)(=O)c1ccccc1 (centres unmarked) [Example 56, N-[5-chloro-3-(phenylsulfonyl)-1H-indol-2-yl]-2-(3-pyridin-2-ylpyrrolidin-1-yl)acetamide] | < 1000 nM | 
O=C(Nc1[nH]c2ccc(Cl)cc2c1S(=O)(=O)c1ccccc1)NC1CCCCC1 [Example 57, N-[5-chloro-3-(phenylsulfonyl)-1H-indol-2-yl]-N′-cyclohexylurea] | < 1000 nM | 
O=C(Nc1[nH]c2ccc(Cl)cc2c1S(=O)(=O)c1ccccc1)NC1CC1c1ccccc1 (centres unmarked) [Example 58, N-[5-chloro-3-(phenylsulfonyl)-1H-indol-2-yl]-N′-(2-phenylcyclopropyl)urea] | < 1000 nM | 
CC(NCC(=O)Nc1[nH]c2ccc(Cl)cc2c1S(=O)(=O)c1ccccc1)c1ccccc1 (centres unmarked) [Example 59, 2-{[5-chloro-3-(phenylsulfonyl)-1H-indol-2-yl]amino}-2-oxo-N-(1-phenylethyl)ethanamine] | < 1000 nM | 
O=C(Nc1[nH]c2ccc(Cl)cc2c1S(=O)(=O)c1ccccc1)C1CCCCC1 [Example 60, N-[5-chloro-3-(phenylsulfonyl)-1H-indol-2-yl]cyclohexanecarboxamide] | < 1000 nM | 
CN1CCN(CC(=O)Nc2[nH]c3ccc(Cl)cc3c2S(=O)(=O)c2ccccc2)CC1 [Example 61, N-[5-chloro-3-(phenylsulfonyl)-1H-indol-2-yl]-2-(4-methylpiperazin-1-yl)acetamide] | < 1000 nM | 
CC(C)NC(=O)Nc1[nH]c2ccc(Cl)cc2c1S(=O)(=O)c1ccccc1 [Example 62, N-[5-chloro-3-(phenylsulfonyl)-1H-indol-2-yl]-N′-isopropylurea] | < 1000 nM | 
O=C(COc1ccccc1)Nc1[nH]c2ccc(Cl)cc2c1S(=O)(=O)c1ccccc1 [Example 65, N-[5-chloro-3-(phenylsulfonyl)-1H-indol-2-yl]-2-phenoxyacetamide] | < 1000 nM | 
O=C(Nc1cc(F)cc(F)c1)Nc1[nH]c2ccc(Cl)cc2c1S(=O)(=O)c1ccccc1 [Example 66, N-[5-chloro-3-(phenylsulfonyl)-1H-indol-2-yl]-N′-(3,5-difluorophenyl)urea] | < 1000 nM | 
O=C(Nc1cccc(C(F)(F)F)c1)Nc1[nH]c2ccc(Cl)cc2c1S(=O)(=O)c1ccccc1 [Example 68, N-[5-chloro-3-(phenylsulfonyl)-1H-indol-2-yl]-N′-[3-(trifluoromethyl)phenyl]urea] | < 1000 nM | 
O=C(NCc1c(F)cccc1Cl)Nc1[nH]c2ccc(Br)cc2c1S(=O)(=O)N1CCCC1 [Example 95, N-[5-bromo-3-(pyrrolidin-1-ylsulfonyl)-1H-indol-2-yl]-N′-(2-chloro-6-fluorobenzyl)urea] | < 1000 nM | 
O=C(Nc1[nH]c2ccc(Br)cc2c1S(=O)(=O)N1CCCC1)N1CCC1 [Example 96, N-[5-bromo-3-(pyrrolidin-1-ylsulfonyl)-1H-indol-2-yl]azetidine-1-carboxamide] |  | 1000 to 10000 nM
